Laboratory results as given in the NIST ThermoML archive (doi:10.1016/j.fluid.2017.03.021).

What was measured:
[1] = 101.33 kPa, Liquid; for speed of sound: Sing-around technique in a fixed-path interferometer; for mass density: Vibrating tube method
[2] = molar heat capacity at constant pressure; details: 101.33 kPa, Liquid, DSC

CCCCC[n+]1ccn(CCCC)c1.O=S(=O)([N-]S(=O)(=O)C(F)(F)F)C(F)(F)F
Details	mass density, [1] [kg/m3]	molar heat capacity at constant pressure, [2] [J/K/mol]	speed of sound, [1] [m/s]
287.15 K	1327.3	–	1239.6
289.15 K	1325.5	–	1234.8
291.15 K	1323.7	–	1230
293.15 K	1321.9	683.58	1225.3
294.15 K	–	684.63	–
295.15 K	1320.1	685.3	1220.6
296.15 K	–	685.96	–
297.15 K	1318.3	686.63	1216
298.15 K	–	687.34	–
299.15 K	1316.5	687.96	1211.3
300.15 K	–	688.62	–
301.15 K	1314.7	689.29	1206.7
302.15 K	–	690	–
303.15 K	1312.9	690.67	1202.1
304.15 K	–	691.38	–
305.15 K	1311.1	692.05	1197.6
306.15 K	–	692.76	–
307.15 K	1309.4	693.52	1193
308.15 K	–	694.28	–
309.15 K	1307.6	694.95	1188.5
310.15 K	–	695.57	–
311.15 K	1305.8	696.23	1184
312.15 K	–	697.09	–
313.15 K	1304	697.9	1179.6
314.15 K	–	698.7	–
315.15 K	1302.3	699.42	1175.1
316.15 K	–	700.08	–
317.15 K	1300.5	700.84	1170.7
318.15 K	–	701.65	–
319.15 K	1298.8	702.37	1166.3
320.15 K	–	703.22	–
321.15 K	1297	703.98	1161.8
322.15 K	–	704.74	–
323.15 K	1295.2	705.5	1157.5
324.15 K	–	706.26	–
325.15 K	1293.5	707.07	1153.1
326.15 K	–	707.83	–
327.15 K	1291.7	708.69	1148.7
328.15 K	–	709.54	–
329.15 K	1290	710.35	1144.4
330.15 K	–	711.07	–
331.15 K	1288.3	711.87	1140.1
332.15 K	–	712.64	–
333.15 K	1286.5	713.4	1135.8
334.15 K	–	714.16	–
335.15 K	1284.8	714.87	1131.5
336.15 K	–	715.68	–
337.15 K	1283	716.44	1127.3
338.15 K	–	717.2	–
339.15 K	1281.3	718.01	1123
340.15 K	–	718.67	–
341.15 K	1279.6	719.43	1118.8
342.15 K	–	719.96	–
343.15 K	1277.8	720.62	1114.7
344.15 K	–	721.24	–
345.15 K	–	721.86	–
346.15 K	–	722.48	–
347.15 K	–	723.29	–
348.15 K	–	724.47	–
